Assay results: patent US20020160968A1, “Inhibitors of cellular niacinamide mononucleotide formation and their use in cancer therapy” (Klinge Pharma GmbH, priority 1999, published 2002)
Read-outs that look alike come from different tables or passages of the source.

Tests used:
Format in all cases: cell-based, human
[1] = tested on: Hep G2 cells; assay: Nicotinamide Reversibility Assay / cell growth inhibition of Hep G2 cells (SRB, six days); conditions: for IC50: read-out: Cell growth inhibition IC50-values [μM] Hep G2; for Reversal by Niacinamide: Hep G2 cell growth inhibition with added nicotinamide
Method: Nicotinamide Reversibility Assay
Hep G2 cells derived from a human liver carcinoma were plated at a density of 20,000 cells/ml in 12-well plastic dishes. Cultivation occurred in Richters IMEM-ZO nutrient medium with 5% fetal calf serum (FCS) in a tissue culture incubator with a gas mixture of 5% CO2 and 95% air at a temperature of 37° C. One day after plating, the culture medium was aspirated from the cells and replaced by fresh medium which contained the respective concentrations of the test compounds and where applicable of the nicotinamide. For the individual concentrations and the controls without test compounds, three-fold batches were done for each. Three days after the beginning of treatment, the medium was again renewed with the test compounds and where applicable the nicotinamide. After six days of compound incubation, the test was ended and the protein amount in the individual wells was determined with the sulforhodamin-B-method (according. to P. Skehan et al.: New Colorimetric Cytotoxicity Assay for Anticancer-Drug Screening. J. Natl. Cancer Inst. 82: 1107-1112, 1990). The IC50-values were taken from the dose-response curves and given as a comparative measurement for the activity of the test compounds.

[2] = tested on: HepG2 cells; assay: Cell growth under high-density conditions (SRB assay), delayed cell death (DCD); conditions: for minimal effective concentration: Homo sapiens; for minimal effective concentration / Tox. (effective (toxic) concentration) in DCD: high density HepG2 cultures; for Tox. (effective (toxic) concentration) in DCD: toxic compounds, rapid decrease in cell numbers
[3] = tested on: NAD(P) synthesis from niacinamide in HepG2 cells; assay: Determination of NAD(P) synthesis from [14C]niacinamide in HepG2 cells
Source text: The effect of the compounds on the synthesis of NAD(P) starting from niacinamide was investigated using for example the tumor cell line HepG2 according to the technique described in the experimental part below.
The inhibition of the NAD(P) synthesis from niacinamide by these compounds was investigated in HepG2 cells as described in the section “Material and Methods”. The compounds of Table 3 a were used at a concentration of 10^−5 M. The compounds of Table 3 b were used at concentrations of at least 10^−5 M, except for Doxorubicin where the concentration was 0.3×10^−5 M. As a control, vehicle treated or untreated cells were used.
In these experiments, a pre-incubation period of 17 hrs with the compounds was used, but it turned out that the pre-incubations period could be shortened, for example to 2 hrs, or skipped completely without affecting the inhibition profile. […] Similar results were obtained with the other specific compounds.
For the detection of specific inhibitors of niacinamide mononucleotide formation the following screening assay is especially useful which comprises the following steps: incubating cultured cells selected from HepG2 cells, U-87 MG cells, MCF-7 M1 cells, Caki-1 cells, HL-60 cells, PC3 cells, U-373 MG cells, A549 cells and KG-1a cells in the presence of [^14C]niacinamide and a compound to be tested for its activity to inhibit the cellular formation of niacinamide mononucleotide; effecting lysis of the cells; isolating and separating the [^14C]-labeled compounds and measuring the amount of formed labeled niacinamide mononucleotide, NAD and NADP. More concretely, cultured cells are seeded in a defined density in culture dishes, followed by incubation in the presence of a test compound and by the addition of [^14C]niacinamide for about 0.1 to 6 hrs. The cells are then lysed with perchloric acid and the resulting extract is neutralized. Finally, the [^14C]-labeled compounds are separated by thin-layer chromatography on cellulose matrices followed by UV detection and autoradiography. Non-radioactive niacinamide derivatives are used as standards. This assay allows simple and effective screening and selection of the compounds according to the invention.
Determination of NAD(P) Synthesis from [^14C]Niacinamide
The cells were detached from 75 cm^2 flasks by removing the growth medium and adding 3 ml trypsin/EDTA solution to each flask. After about 5 minutes incubation at 37° C., when the cells were detached from the surface of the dishes, trypsinization was stopped by adding 3 ml Richter's IMEM-ZO medium containing 10% FCS. The cells were suspended by repeated pipetting. For predilution, an aliquot of 20 μl was added to 10 ml Casyton isotonic solution (No. 043-90037P, Schärfe System, Reutlingen, Germany) using a Sysmex Auto Dilutor Type AD-260 (Toa, Medical Electronics Co. Ltd., Kobe, Japan). The cell number was determined by electronic cell volume measurements and counting with a CASY 1 Cell Counter+Analyzer System, Model TTC (Schärfe System, Reutlingen, Germany) equipped with a 60 μm capillary. Following dilution in IMEM-ZO containing 10% FCS, the cells were finally seeded at a density of 4×10^6/10 ml per sample in Ø 10 cm tissue culture dishes (Greiner, Frickenhausen, Germany) and incubated at 37° C. in a humidified atmosphere of 5% CO2 in air.
After one day, when the cells were adherent to the dishes, the cultures were replenished with IMEM-ZO containing 5% FCS plus the test compound or the vehicle. […] The cells were then incubated at 37° C. for 17 hours in a humidified atmosphere of 5% CO2 in air. This preincubation period is not necessary to achieve a distinct inhibitory action of the compounds and can be shortened for example to 2 or 0 hours. After this period of time, the medium was again discarded and 4 ml HEPES-buffered IMEM-ZO containing the test compound or the vehicle and 0.5 μCi/ml [^14C]niacinamide were added to each culture for an additional 5 hours at 37° C. and 100% humidity. […]

[4] = Homo sapiens, HepG2, 144 h, Hep G2, six days of compound incubation, SRB
[5] = minimum concentration which, despite initial growth, induced cell death below the number of initially seeded cells, Table 2
[6] = Homo sapiens, 10 μM, read-out: Cellular NAD synthesis inhibition [%]
[7] = Homo sapiens, Table 3a, compound 10^-5 M, read-out: NAD(P) % of Control
[8] = Table 3a, compound 10^-5 M, 17 hrs pre-incubation, control 302.1
[9] = Table 3a, compound 10^-5 M, control 186.4
[10] = Table 3b, at least 10^-5 M, control 374.00
[11] = Table 3b, toxic compounds at at least 10^-5 M, control 531

Row | SMILES | IC50 [1, 4] [µM] | minimal effective concentration ([2]; Table 5) [µM] | minimal effective concentration [2, 5] [µM] | inhibition at 10 µM [3, 6] [%] | activity at 10 µM [3, 7] [%] | NAD(P) pmol/10^6 cells [3, 8] [pmol/10^6 cells] | NAD(P) pmol/mg protein [3, 9] [pmol/mg protein] | Influence of the addition of nicotinamide on the action on cell growth (FIGS. 20 to 27) ([1]; Hep G2) | Reversal by Niacinamide [1] | Tox. (effective (toxic) concentration) in DCD [2] | NAD(P) % of Control ([3]; Table 3b, at least 10^-5 M) [%] | NAD(P) pmol/mg protein [3, 10] [pmol/mg protein] | NAD(P) pmol/10^6 cells [3, 11] [pmol/10^6 cells] | other results
1 | O=C(CCCCCN1CCN(C(c2ccccc2)c2ccccc2)CC1)NCCc1cccnc1 [Compound K22265, 6-(4-benzhydryl-piperazine-1-yl)-hexanoic acid-(2-pyridine-3-yl-ethyl)-amide] | 2 | 3 | 3 | 98 | 2.4 | 7.3 | 4.5 |  |  |  |  |  |  | 
2 | S=C(NCCCCC=C(c1ccccc1)c1ccccc1)N/N=C/c1cccnc1 [Compound K22299, 1-(6,6-diphenyl-5-hexenyl)-3-(pyridine-3-yl-methylene-amino)-thiourea] | 0.1 | 0.3 | 0.3 | 99 | 0.5 | 1.6 | 1.0 |  |  |  |  |  |  | 
3 | [N-]=[N+]=CC(=O)CC[C@H](N)C(=O)O [6-Diazo-5-oxo-L-norleucine, reference compound] | 3 |  |  | 0 |  |  |  | no measurable influence | no | Tox. 100 μM | 110.5 | 413.55 | 586.39 | 
4 | COc1cccc2c1C(=O)c1c(O)c3c(c(O)c1C2=O)C[C@@](O)(C(=O)CO)C[C@@H]3O[C@H]1C[C@H](N)[C@H](O)[C@H](C)O1 [Doxorubicin, reference compound] | 0.02 |  |  |  |  |  |  | no measurable influence | no |  |  |  |  | inhibition at 3 µM ([3]; Homo sapiens, 3 μM, read-out: Cellular NAD synthesis inhibition [%]): 0%; activity at 3 µM ([3]; Homo sapiens, Table 3b, 0.3×10^-5 M, read-out: NAD(P) % of Control): 102%
5 | O=C(NCCCCCCNC(=O)N1CCN(C(c2ccccc2)c2ccccc2)CC1)NCc1cccnc1 [Compound K22132, 4-benzhydryl-piperazine-1-carboxylic acid-[6-(3-pyridine-3-yl-methylureido)-hexyl]-amide] | 0.02 | 0.03 | 0.1 | 99 | 1.4 | 4.1 | 2.5 |  |  |  |  |  |  | 
6 | NC(=O)c1csc([C@@H]2O[C@H](CO)[C@@H](O)[C@H]2O)n1 [Tiazofurin, reference compound] |  |  |  |  |  |  |  | no measurable influence | no | Tox. 300 μM | 78.1 | 292.30 | 414.47 | IC50 ([1]; Homo sapiens, HepG2, 144 h): 10 µM; inhibition at 100 µM ([3]; Homo sapiens, 100 μM, read-out: Cellular NAD synthesis inhibition [%]): 22%
7 | S=C(NCCCCCC1CCN(C(c2ccccc2)c2ccccc2)CC1)Nc1cccnc1 [Compound K22234, 1-[5-(1-benzhydryl-piperidine-4-yl)-pentyl]-3-pyridine-3-yl-thiourea] | 0.2 | 0.3 | 0.3 | 99 | 1.1 | 3.4 | 2.1 |  |  |  |  |  |  | 
8 | [N-]=[N+]=CC(=O)OC[C@H](N)C(=O)O [Azaserine, reference compound] | 0.7 |  |  | 0 |  |  |  | no measurable influence | no |  | 100.0 | 374.23 | 530.64 | 
9 | NC(=O)c1ccc(N)nc1 [6-Aminonicotinamide, reference compound] |  |  |  |  |  |  |  |  | yes | Tox. 10000 μM | 88.0 | 329.34 | 466.98 | IC50 ([1]; Homo sapiens, HepG2, 144 h): 4 µM; inhibition at 30 µM ([3]; Homo sapiens, 30 μM, read-out: Cellular NAD synthesis inhibition [%]): 12%
10 | NC(=O)c1c[se]c([C@@H]2O[C@H](CO)[C@@H](O)[C@H]2O)n1 [Selenazofurin, reference compound] |  |  |  |  |  |  |  | no measurable influence | no | Tox. 30 μM | 70.2 | 372.29 | 372.29 | IC50 ([1]; Hep G2, six days of compound incubation, SRB): 0.7 µM; Cellular NAD synthesis inhibition [%] ([3]; 10 μM): 30 (10 μM) %
11 | O=C(NCCCCC1CCN(C(c2ccccc2)c2ccccc2)CC1)Nc1cccnc1 [Compound K22130, 1-[4-(1-benzhydryl-piperidine-4-yl)-butyl]-3-pyridine-3-yl-urea] | 0.08 | 1 | 1 |  |  |  |  |  |  |  |  |  |  | 
12 | O=C(NCCCCC1CCN(C(c2ccccc2)c2ccccc2)CC1)NCCc1cccnc1 [Compound K22339, 1-[4-(1-benzhydryl-piperidine-4-yl)-butyl]-3-(2-pyridine-3-ylethyl)-urea] | 0.1 | 0.1 | 0.3 |  | 0.8 | 2.5 | 1.6 | can be antagonized | yes |  |  |  |  | Day on which cell death occurred ([2]; concentrations of at least 0.3 μM, high density HepG2 culture): 4 days; inhibition at 1 µM ([3]; Homo sapiens, 1 μM, read-out: Cellular NAD synthesis inhibition [%]): 99%
